Literature values as cited in article PMC3480357, “Fragment-Hopping-Based Discovery of a Novel Chemical Series of Proto-Oncogene PIM-1 Kinase Inhibitors” (PLoS ONE, 2012).

Assays:
[1] = target: EGF-R (Homo sapiens, UniProt P00533); parameters: method as in PMID 21051136; settings: 10 µM; average of two data points; cited from earlier work
[2] = target: T1, FLT3 (Homo sapiens, UniProt P36888); parameters: method as in PMID 21051136; settings: 10 µM; cited from earlier work
T1 construct: purchased Invitrogen PV3182
T1 sequence (P36888 564-993 limits assumed): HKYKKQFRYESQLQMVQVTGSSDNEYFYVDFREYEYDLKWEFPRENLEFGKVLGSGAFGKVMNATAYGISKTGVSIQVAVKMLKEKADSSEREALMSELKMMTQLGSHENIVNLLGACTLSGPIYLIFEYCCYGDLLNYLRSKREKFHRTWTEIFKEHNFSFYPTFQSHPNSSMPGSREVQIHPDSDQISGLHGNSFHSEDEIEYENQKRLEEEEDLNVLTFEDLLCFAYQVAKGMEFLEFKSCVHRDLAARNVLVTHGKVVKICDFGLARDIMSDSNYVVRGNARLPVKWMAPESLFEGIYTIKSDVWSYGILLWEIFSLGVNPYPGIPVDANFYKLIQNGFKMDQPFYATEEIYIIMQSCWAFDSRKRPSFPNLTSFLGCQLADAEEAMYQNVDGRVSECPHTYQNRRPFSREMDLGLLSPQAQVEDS

EGF-R, sequence (P00533 25-1210, species assumed): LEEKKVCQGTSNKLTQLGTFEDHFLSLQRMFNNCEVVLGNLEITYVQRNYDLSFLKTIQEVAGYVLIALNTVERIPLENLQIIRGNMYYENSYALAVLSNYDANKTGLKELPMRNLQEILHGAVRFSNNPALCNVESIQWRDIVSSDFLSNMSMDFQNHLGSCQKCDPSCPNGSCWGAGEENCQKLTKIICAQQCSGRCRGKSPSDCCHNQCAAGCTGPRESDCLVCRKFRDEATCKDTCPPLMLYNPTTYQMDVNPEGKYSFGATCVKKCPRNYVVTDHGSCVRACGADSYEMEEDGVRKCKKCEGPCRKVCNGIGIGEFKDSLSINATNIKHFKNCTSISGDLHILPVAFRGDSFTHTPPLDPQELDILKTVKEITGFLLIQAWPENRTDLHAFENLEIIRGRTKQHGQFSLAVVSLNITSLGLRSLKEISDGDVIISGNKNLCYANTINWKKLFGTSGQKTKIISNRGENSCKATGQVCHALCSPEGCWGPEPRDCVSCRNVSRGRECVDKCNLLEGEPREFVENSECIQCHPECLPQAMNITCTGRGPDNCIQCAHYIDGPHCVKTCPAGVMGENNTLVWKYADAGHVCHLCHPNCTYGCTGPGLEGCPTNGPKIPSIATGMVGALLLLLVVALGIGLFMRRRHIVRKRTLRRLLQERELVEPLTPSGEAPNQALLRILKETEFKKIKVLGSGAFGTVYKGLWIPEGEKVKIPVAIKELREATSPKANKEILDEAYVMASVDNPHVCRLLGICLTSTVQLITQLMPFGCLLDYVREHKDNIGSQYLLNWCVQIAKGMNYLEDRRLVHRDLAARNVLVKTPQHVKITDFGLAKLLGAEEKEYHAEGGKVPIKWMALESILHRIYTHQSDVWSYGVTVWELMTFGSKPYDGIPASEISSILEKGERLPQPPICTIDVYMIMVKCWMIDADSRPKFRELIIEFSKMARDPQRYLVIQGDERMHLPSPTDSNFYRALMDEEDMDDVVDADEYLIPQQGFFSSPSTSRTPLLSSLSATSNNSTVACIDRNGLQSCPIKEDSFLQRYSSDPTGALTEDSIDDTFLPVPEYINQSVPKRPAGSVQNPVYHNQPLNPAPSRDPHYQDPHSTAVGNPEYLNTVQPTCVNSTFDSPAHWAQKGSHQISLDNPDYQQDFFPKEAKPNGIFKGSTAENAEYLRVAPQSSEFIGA

SMILES: Oc1ccc(-c2cnc3ccc(NCc4ccc(F)cc4)nn23)cc1 [Compound 1]
- EGF-R percentage of inhibition [1]: 33%
- FLT3 percentage of inhibition [2]: more than 90%
